What was measured:
C. albicans = experiment: Microbial spectrum, C. albicans; type: cell-based, Candida albicans; details: no clavulanate; Table S4
plasma proteins [1] = experiment: Plasma protein binding (equilibrium dialysis), beagle dog; details: 2 μM
S. aureus = experiment: Microbial spectrum, S. aureus; type: cell-based, Staphylococcus aureus; details: clavulanate 4 μg/mL; Table S4
Mtb H37Rv [2] = experiment: MIC90 against nonreplicating (NR, 4-stress) Mtb H37Rv, with or without clavulanate; type: cell-based, Mycobacterium tuberculosis; details: 4-stress nonreplicating, Table S4; for Mtb H37Rv NR + CLAV (MIC90): clavulanate 4 μg/mL; for Mtb H37Rv NR (MIC90): no clavulanate
[3] = Stability in fasted simulated intestinal fluid (FaSSIF); details: 10 μM, pH 6.5, room temperature
[4] = In vitro plasma stability, human plasma; details: 2 μM, 37 °C, time point 120 min
Caco-2 cells = experiment: Caco-2 permeability / efflux transporter substrate; details: for Caco-2 Mean Papp A to B / Caco-2 Mean Papp B to A: 3 μM, pH 7.4, 120 min; for Caco-2 Efflux Ratio / Caco-2 Mean Recovery % A to B / Caco-2 Mean Recovery % B to A / Caco-2 Rank Papp / Efflux Transporter Substrate: Caco-2
E. coli = experiment: Microbial spectrum, E. coli; type: cell-based, Escherichia coli; details: clavulanate 4 μg/mL; Table S4
[5] = In vitro plasma stability, beagle dog plasma; details: 2 μM, 37 °C, time point 120 min
[6] = In vitro plasma stability, CD-1 mouse plasma; details: 2 μM, 37 °C, time point 120 min
plasma proteins [7] = experiment: Plasma protein binding (equilibrium dialysis), SD rat; details: 2 μM
plasma proteins [8] = experiment: Plasma protein binding (equilibrium dialysis), CD-1 mouse; details: 2 μM
P. aeruginosa = experiment: Microbial spectrum, P. aeruginosa; type: cell-based, Pseudomonas aeruginosa; details: clavulanate 4 μg/mL; Table S4
[9] = In vitro plasma stability, SD rat plasma; details: 2 μM, 37 °C, time point 120 min
plasma proteins [10] = experiment: Plasma protein binding (equilibrium dialysis), human; details: 2 μM
[11] = In vitro plasma stability, cynomolgus monkey plasma; details: 2 μM, 37 °C, time point 120 min
Mtb H37Rv [12] = experiment: MIC90 against replicating (R) Mtb H37Rv, with or without clavulanate; type: cell-based, Mycobacterium tuberculosis; details: Table S4; for Mtb H37Rv R + CLAV (MIC90): clavulanate 4 μg/mL; for Mtb H37Rv R (MIC90): no clavulanate
[13] = Stability in simulated gastric fluid (SGF); details: 10 μM, pH 1.2, room temperature

Structure (SMILES)	C.albicans R (MIC90) (C. albicans)	S.aureus R + CLAV (MIC90) (S. aureus)	Mtb H37Rv NR + CLAV (MIC90) (Mtb H37Rv [2])	Mtb H37Rv NR (MIC90) (Mtb H37Rv [2])	FaSSIF Stability, % remaining, 6h [3]	FaSSIF Stability, % remaining, 24h [3]	Plasma stability % Remaining, Human [4]	Caco-2 Mean Papp A to B (Caco-2 cells)	Caco-2 Mean Papp B to A (Caco-2 cells)	Caco-2 Efflux Ratio (Caco-2 cells)	E.coli R + CLAV (MIC90) (E. coli)	Plasma stability % Remaining, Dog [5]	Plasma stability % Remaining, Mouse [6]	P.aeruginosa R + CLAV (MIC90) (P. aeruginosa)	Plasma stability % Remaining, Rat [9]	Plasma stability % Remaining, Monkey [11]	Mtb H37Rv R + CLAV (MIC90) (Mtb H37Rv [12])	Mtb H37Rv R (MIC90) (Mtb H37Rv [12])	SGF Stability, % remaining, 1h [13]	SGF Stability, % remaining, 24h [13]	further results
Cn1c(SCC2=C(C(=O)O)N3C(=O)[C@@H](NC(=O)Cc4ccccc4CN)[C@H]3SC2)nnc(O)c1=O [TBBL-0000460]	> 200 µM	4.6 µM	85.6 µM	69.3 µM	96.2%	86.61%	90.4%	0.16 10-6 cm/s	0.24 10-6 cm/s	1.52	13.4 µM	73.7%	88.8%	> 200 µM	92.4%	25.6%	2 µM	5.4 µM	102.88%	85.68%	% bound to plasma, Beagle Dog (plasma proteins [1]): 0.0%; Caco-2 Mean Recovery % A to B (Caco-2 cells): 97.79%; Caco-2 Mean Recovery % B to A (Caco-2 cells): 106.35%; Caco-2 Rank Papp (Caco-2 cells): Low; Efflux Transporter Substrate (Caco-2 cells): Poor or no; % bound to plasma, SD Rat (plasma proteins [7]): 29.0%; % bound to plasma, CD-1 Mouse (plasma proteins [8]): 16.1%; % bound to plasma, Human (plasma proteins [10]): 15.9%
CCc1nnc(SCC2=C(C(=O)O)N3C(=O)[C@@H](NC(=O)Cc4ccc(C5=NCCCN5)cc4)[C@H]3SC2)s1 [TBBL-0000317]	> 100 µM	2.1 µM	> 100 µM	> 100 µM	94.96%	90.38%	17.4%				> 100 µM	31.5%	13.3%	> 100 µM	2.4%	13.4%	1.1 µM	22.3 µM	90.44%	79.32%	
CC=CC(=O)OCC1=C(C(=O)O)N2C(=O)[C@@H](NC(=O)C(=NO)c3cccs3)[C@H]2SC1 [TBBL-0000058]	> 100 µM	0.5 µM	84.6 µM	56.8 µM	114.21%	66.32%	35.0%	< 0.38 10-6 cm/s	0.63 10-6 cm/s	> 1.68	41.8 µM	81.2%	67.6%	> 100 µM	60.9%	22.0%	1.1 µM	8.7 µM	94.94%	57.36%	Caco-2 Mean Recovery % A to B (Caco-2 cells): < 98.97%; Caco-2 Mean Recovery % B to A (Caco-2 cells): 111.16%; Caco-2 Rank Papp (Caco-2 cells): Low; Efflux Transporter Substrate (Caco-2 cells): Poor or no
